Measurements from paper PMC12292504, “Improving Cofactor Promiscuity of HMG-CoA Reductase from Ruegeria pomeroyi Through Rational Design” (Biomolecules, 2025).

Target: T1, rpHMGR (Ruegeria pomeroyi, UniProt Q5LL64, D154K)
T1 construct: gene mvaA; N-terminal 6xHis-tag (pET28a-rpHMGR(N)), codon-optimised synthetic gene, E. coli BL21(DE3), Ni-NTA purified; homodimer only by model
Assay: NADPH consumption followed at […] nm (reductive deacylation of HMG-CoA)
Type: biochemical
Conditions: 0.5 mM NADPH, 0.5 mM (R,S)-HMG-CoA, 50 mM Tris-HCl, 50 mM NaCl, 5 mM DTT, pH 7.5, 30 °C

T1 sequence (Q5LL64 entry or part of it D154K): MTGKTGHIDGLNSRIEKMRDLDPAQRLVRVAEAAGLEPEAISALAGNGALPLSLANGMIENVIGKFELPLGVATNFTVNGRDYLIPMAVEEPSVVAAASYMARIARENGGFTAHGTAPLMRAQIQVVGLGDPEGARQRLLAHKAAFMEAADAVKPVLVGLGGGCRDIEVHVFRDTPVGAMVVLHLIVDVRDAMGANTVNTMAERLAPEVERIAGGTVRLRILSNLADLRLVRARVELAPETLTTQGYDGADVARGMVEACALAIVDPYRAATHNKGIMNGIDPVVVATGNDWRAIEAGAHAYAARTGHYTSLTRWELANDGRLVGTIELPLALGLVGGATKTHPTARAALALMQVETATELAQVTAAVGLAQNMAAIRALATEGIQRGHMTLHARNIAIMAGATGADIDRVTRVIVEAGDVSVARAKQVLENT

SMILES: NC(=O)C1=CN([C@@H]2O[C@H](COP(=O)(O)OP(=O)(O)OC[C@H]3O[C@@H](n4cnc5c(N)ncnc54)[C@H](OP(=O)(O)O)[C@@H]3O)[C@@H](O)[C@H]2O)C=CC1 [NADPH]
- specific activity: D154K mutant exhibited a significantly improved ability to utilize NADPH
